In ChEMBL document CHEMBL3885881, “DrugMatrix”:

Species on record: Rattus norvegicus
Type: toxicity, organism-based, Sprague-Dawley
Conditions: in vivo, po, 24 h, route oral GAVAGE, time 1 day, vehicle .5 % CMC; for ABSOLUTE EOSINOPHIL / ABSOLUTE LYMPHOCYTE / ABSOLUTE MONOCYTE / BASOPHIL / EOSINOPHIL / ERYTHROCYTE COUNT / HEMATOCRIT / HEMOGLOBIN / LEUKOCYTE COUNT / LYMPHOCYTE / MEAN CORPUSCULAR HEMOGLOBIN / MEAN CORPUSCULAR HEMOGLOBIN CONCENTRATION / MEAN CORPUSCULAR VOLUME / MONOCYTE / NEUTROPHIL / PLATELET COUNT / ABSOLUTE BASOPHIL: tissue Blood; for ALANINE AMINOTRANSFERASE / ALBUMIN / ALKALINE PHOSPHATASE / ASPARTATE AMINOTRANSFERASE / BLOOD UREA NITROGEN / CARBON DIOXIDE / CHLORIDE / CHOLESTEROL / CREATINE PHOSPHOKINASE / CREATININE / GLUCOSE / LACTATE DEHYDROGENASE / LIPASE / PHOSPHORUS / POTASSIUM / SODIUM / TOTAL BILIRUBIN / TOTAL PROTEIN / URIC ACID: tissue Plasma
Description: DrugMatrix - Regimen: Single

CN(C)CCN(Cc1cccs1)c1ccccn1
ABSOLUTE EOSINOPHIL (0 mg/kg, dose level Control): 47.5 cells/µL | ABSOLUTE LYMPHOCYTE (0 mg/kg, dose level Control): 8340 cells/µL | ABSOLUTE MONOCYTE (0 mg/kg, dose level Control): 260 cells/µL | BASOPHIL (0 mg/kg, dose level Control): 0.33% | EOSINOPHIL (0 mg/kg, dose level Control): 0.45% | ERYTHROCYTE COUNT (0 mg/kg, dose level Control): 6.31 x10E6/uL | HEMATOCRIT (0 mg/kg, dose level Control): 42.88% | HEMOGLOBIN (0 mg/kg, dose level Control): 13 G/DL | LEUKOCYTE COUNT (0 mg/kg, dose level Control): 10.38 x10E3/uL | LYMPHOCYTE (0 mg/kg, dose level Control): 80.53% | MEAN CORPUSCULAR HEMOGLOBIN (0 mg/kg, dose level Control): 20.6 pg | MEAN CORPUSCULAR HEMOGLOBIN CONCENTRATION (0 mg/kg, dose level Control): 30.3 G/DL | MEAN CORPUSCULAR VOLUME (0 mg/kg, dose level Control): 67.9 fL | MONOCYTE (0 mg/kg, dose level Control): 2.4% | NEUTROPHIL (0 mg/kg, dose level Control): 15.08% | PLATELET COUNT (0 mg/kg, dose level Control): 1192.5 x10E3/uL | ALANINE AMINOTRANSFERASE (0 mg/kg, dose level Control): 47 u/L | ALBUMIN (0 mg/kg, dose level Control): 3.55 G/DL | ALKALINE PHOSPHATASE (0 mg/kg, dose level Control): 460.75 u/L | ASPARTATE AMINOTRANSFERASE (0 mg/kg, dose level Control): 71.75 u/L | BLOOD UREA NITROGEN (0 mg/kg, dose level Control): 13.75 mg/dL | CARBON DIOXIDE (0 mg/kg, dose level Control): 36.75 mmol/L | CHLORIDE (0 mg/kg, dose level Control): 107.25 MEQ/L | CHOLESTEROL (0 mg/kg, dose level Control): 85.25 mg/dL | CREATINE PHOSPHOKINASE (0 mg/kg, dose level Control): 373 u/L | CREATININE (0 mg/kg, dose level Control): 0.67 mg/dL | GLUCOSE (0 mg/kg, dose level Control): 173.25 mg/dL | LACTATE DEHYDROGENASE (0 mg/kg, dose level Control): 241.25 u/L | LIPASE (0 mg/kg, dose level Control): 39.25 u/L | PHOSPHORUS (0 mg/kg, dose level Control): 13.5 mg/dL | POTASSIUM (0 mg/kg, dose level Control): 6.9 MEQ/L | SODIUM (0 mg/kg, dose level Control): 153 MEQ/L | TOTAL BILIRUBIN (0 mg/kg, dose level Control): 0.3 mg/dL | TOTAL PROTEIN (0 mg/kg, dose level Control): 6.05 G/DL | URIC ACID (0 mg/kg, dose level Control): 1.07 mg/dL | ABSOLUTE BASOPHIL (10 mg/kg, dose level Low): 50 cells/µL | ABSOLUTE EOSINOPHIL (10 mg/kg, dose level Low): 57.5 cells/µL | ABSOLUTE LYMPHOCYTE (10 mg/kg, dose level Low): 6900 cells/µL | ABSOLUTE MONOCYTE (10 mg/kg, dose level Low): 160 cells/µL | BASOPHIL (10 mg/kg, dose level Low): 0.62% | EOSINOPHIL (10 mg/kg, dose level Low): 0.68% | ERYTHROCYTE COUNT (10 mg/kg, dose level Low): 6.69 x10E6/uL | HEMATOCRIT (10 mg/kg, dose level Low): 45.23% | HEMOGLOBIN (10 mg/kg, dose level Low): 13.75 G/DL | LEUKOCYTE COUNT (10 mg/kg, dose level Low): 8.71 x10E3/uL | LYMPHOCYTE (10 mg/kg, dose level Low): 79.03% | MEAN CORPUSCULAR HEMOGLOBIN (10 mg/kg, dose level Low): 20.57 pg | MEAN CORPUSCULAR HEMOGLOBIN CONCENTRATION (10 mg/kg, dose level Low): 30.38 G/DL | MEAN CORPUSCULAR VOLUME (10 mg/kg, dose level Low): 67.67 fL | MONOCYTE (10 mg/kg, dose level Low): 1.82% | NEUTROPHIL (10 mg/kg, dose level Low): 16.77% | PLATELET COUNT (10 mg/kg, dose level Low): 1228.25 x10E3/uL | ALANINE AMINOTRANSFERASE (10 mg/kg, dose level Low): 48.75 u/L | ALBUMIN (10 mg/kg, dose level Low): 3.7 G/DL | ALKALINE PHOSPHATASE (10 mg/kg, dose level Low): 472.25 u/L | ASPARTATE AMINOTRANSFERASE (10 mg/kg, dose level Low): 65.25 u/L | BLOOD UREA NITROGEN (10 mg/kg, dose level Low): 13 mg/dL | CARBON DIOXIDE (10 mg/kg, dose level Low): 38.5 mmol/L | CHLORIDE (10 mg/kg, dose level Low): 107.25 MEQ/L | CHOLESTEROL (10 mg/kg, dose level Low): 86.75 mg/dL | CREATINE PHOSPHOKINASE (10 mg/kg, dose level Low): 250.75 u/L | CREATININE (10 mg/kg, dose level Low): 0.67 mg/dL | GLUCOSE (10 mg/kg, dose level Low): 167 mg/dL | LACTATE DEHYDROGENASE (10 mg/kg, dose level Low): 129.25 u/L | LIPASE (10 mg/kg, dose level Low): 38.5 u/L | PHOSPHORUS (10 mg/kg, dose level Low): 12.45 mg/dL | POTASSIUM (10 mg/kg, dose level Low): 6.83 MEQ/L | SODIUM (10 mg/kg, dose level Low): 153.75 MEQ/L | TOTAL BILIRUBIN (10 mg/kg, dose level Low): 0.3 mg/dL | TOTAL PROTEIN (10 mg/kg, dose level Low): 6.32 G/DL | URIC ACID (10 mg/kg, dose level Low): 0.98 mg/dL | ABSOLUTE BASOPHIL (100 mg/kg, dose level High): 130 cells/µL | ABSOLUTE EOSINOPHIL (100 mg/kg, dose level High): 55 cells/µL | ABSOLUTE LYMPHOCYTE (100 mg/kg, dose level High): 9590 cells/µL | ABSOLUTE MONOCYTE (100 mg/kg, dose level High): 430 cells/µL | BASOPHIL (100 mg/kg, dose level High): 0.95% | EOSINOPHIL (100 mg/kg, dose level High): 0.5% | ERYTHROCYTE COUNT (100 mg/kg, dose level High): 6.9 x10E6/uL | HEMATOCRIT (100 mg/kg, dose level High): 46.1% | HEMOGLOBIN (100 mg/kg, dose level High): 14.12 G/DL | LEUKOCYTE COUNT (100 mg/kg, dose level High): 11.89 x10E3/uL | LYMPHOCYTE (100 mg/kg, dose level High): 80.6% | MEAN CORPUSCULAR HEMOGLOBIN (100 mg/kg, dose level High): 20.48 pg | MEAN CORPUSCULAR HEMOGLOBIN CONCENTRATION (100 mg/kg, dose level High): 30.62 G/DL | MEAN CORPUSCULAR VOLUME (100 mg/kg, dose level High): 66.9 fL | MONOCYTE (100 mg/kg, dose level High): 3.62% | NEUTROPHIL (100 mg/kg, dose level High): 12.9% | PLATELET COUNT (100 mg/kg, dose level High): 1177.75 x10E3/uL | ALANINE AMINOTRANSFERASE (100 mg/kg, dose level High): 102.25 u/L | ALBUMIN (100 mg/kg, dose level High): 3.6 G/DL | ALKALINE PHOSPHATASE (100 mg/kg, dose level High): 460.75 u/L | ASPARTATE AMINOTRANSFERASE (100 mg/kg, dose level High): 150.5 u/L | BLOOD UREA NITROGEN (100 mg/kg, dose level High): 13.5 mg/dL | CARBON DIOXIDE (100 mg/kg, dose level High): 37.75 mmol/L | CHLORIDE (100 mg/kg, dose level High): 108 MEQ/L | CHOLESTEROL (100 mg/kg, dose level High): 61.5 mg/dL | CREATINE PHOSPHOKINASE (100 mg/kg, dose level High): 211.25 u/L | CREATININE (100 mg/kg, dose level High): 0.67 mg/dL | GLUCOSE (100 mg/kg, dose level High): 169.5 mg/dL | LACTATE DEHYDROGENASE (100 mg/kg, dose level High): 94.25 u/L | LIPASE (100 mg/kg, dose level High): 24.75 u/L | PHOSPHORUS (100 mg/kg, dose level High): 13.18 mg/dL | POTASSIUM (100 mg/kg, dose level High): 7.25 MEQ/L | SODIUM (100 mg/kg, dose level High): 154.25 MEQ/L | TOTAL BILIRUBIN (100 mg/kg, dose level High): 0.3 mg/dL | TOTAL PROTEIN (100 mg/kg, dose level High): 6.08 G/DL | URIC ACID (100 mg/kg, dose level High): 1.07 mg/dL
